Consider 3 molecules from US11130959B2, “Methods and compositions for combinations of mutations associated with herbicide resistance/tolerance in rice” (priority 2016, dated 2021).

Data set [1] has as its system rice line PL1214418M2-73009 and new lines that inherited the ACCase tolerance. Briefly: Trial of recovery of ACCase tolerance in the combined line. In kind it is in vivo, Oryza sativa. Conditions: 0.5×, 1×, 2×, 4× of label rate. The method, then: Another trial was conducted to confirm recovery of the ACCase inhibitor resistance from the RTA1 mutation as in the line ML0831265-01493. In this trial the new line PL1214418-73009 with combined HPPD and ACCase tolerance was planted in a row along with other various lines including the original donor line ML0831265-01493 (planted in a plot), ML0831266-03093, P1003, R0146 parent line for ACCase tolerance. The lines were all tested with the ACCase herbicides fluazifop at 0.5×, 1×, 2×, and 4× multiples of the label application rate (210 gmai/ha) and quizalofop at 0.5×, 1×, 2×, and 4× multiples of the label application rate (77 gmai/ha).

In data set [2] the test system is rice line RTA1+RTA2 (RL1225468, double homozygous stack). Briefly: Field trait tolerance trial, FOP herbicides applied sequentially at 2-leaf and pre-flood. The source says: (§1) FIG. 20A-FIG. 20D showing % Injury response data and plot pictures. Material tested included ACCase-inhibitor resistant combined ACCase lines (RTA1+RTA2), the RTA1 and the RTA2 singles and the stack RTA1+HPPDi+HPPDni. Two applications (at the 2 leaf and pre-flood stage) used the same rate for both applications. […] (all images taken 4 weeks post preflood app), FIG. 20D Plat order (left to right) RTA1, RTA2, RTA1+RTA2, RTA1+HPPD i+HPPDni, P1003, R0146.
(§2) FIG. 21A-FIG. 21E, show plot pictures and % Injury response for ACCase lines RTA1, RTA2, and the stacks RTA1+RTA2 as well as the stack […], when challenged by increasing doses of the main FOP herbicides. […] FIG. 21A untreated control, FIG. 21B 4× Quizalofop, FIG. 21C 4× Fluazifop, FIG. 21D 4× Propaquizafop. 4 weeks post preflood application. Plot order (left to right) G2096S, RTA2, G2096S+RTA2, G2096S+HPPD, P1003, R0146. FIG. 21E graphical representation.
(§3) Evaluation of the novel herbicide resistance genes, subject of this application, was conducted with a range of suitable herbicide doses that cover application rates typically used for rice farming operations while also taking into consideration possible deviations from the manufacturer-recommended doses. Considering 1×, the recommended manufacturers or best practice recommended dose, the most frequently evaluated additional doses are 2× and 4× with some experiments including other values.

The subject of data set [3] is rice lines RTA1, RTA2, RTA1+RTA2, RTA1+HPPD. Briefly: Field trial with increasing doses of FOP herbicides, all trait combinations. Format: in vivo, Oryza sativa. The source says:
4 weeks post preflood application. […] FIG. 21E graphical representation.

Data set [4] concerns rice line RTA1 (ML0831265-01493, G2096S). Briefly: Field trait tolerance trial, FOP herbicides applied sequentially at 2-leaf and pre-flood. Conditions: for injury rates: RTA1, 2× application rates. In kind it is in vivo, Oryza sativa.
Excerpt: as §1, §2
Yield response after sequential 2-leaf and pre-flood quizalofop application.
as §3

For data set [5], the system named is common weeds in rice (grass weeds such as barnyard grass). Description: Weed control in rice crops. Format: in vivo. The note with it: in vivo. The method, then: FIGS. 5A and 5B are photographs of results of trait tolerance trials; weed control by mesotrione herbicide applied pre-planting was evaluated; the plots were planted with a hybrid of the HPPD tolerant line ML0831266-03093; just before planting, the plot on the right FIG. 5B received an application of mesotrione at 210 gmai/ha; the plot on the left FIG. 5A had no herbicide applied either pre-plant or post-emergence; pictures were taken four weeks after planting showing differences in weed appearance.
While testing the tolerant lines, the parent lines were also tested to serve as controls and as an indication of commercial potential as a red rice/wild weedy rice control strategy.
Rice is tolerant to certain ACCase inhibitor herbicides, for example cyhalofop is registered for use in rice. However other ACCase herbicides kill or severely injure rice to varying degrees. […] The applied rates of both types of herbicides giving the weed control are well within the tolerance level of the respective ACCase and HPPD tolerant lines including the combined lines carrying tolerance to both HPPD and ACCase herbicides.

The subject of data set [6] is rice line ML0831265-02283 (RTA2). Briefly: Field validation of tolerance to ACCase herbicide, percent injury 21 days after application. Format: in vivo, Oryza sativa. The note with it: 2× and 4× of labeled rate (77 gmai/ha), four leaf stage. An excerpt:
After screening a large mutant population, the line ML0831265-02283 also survived application of the ACCase herbicide quizalofop. The line was increased to obtain sufficient seed for larger trials to evaluate its tolerance to ACCase herbicides. The tolerance to ACCase herbicides in line ML0831265-02283 was validated by planting in the field plots (5 feet by 10 feet) of the line, the non-mutant parent line R0146, a second non-mutant line P1003, and the ACCase tolerant line ML0831265-01493. The ACCase herbicide quizalofop was applied at the four leaf stage at 0.5×, 1×, 2×, and 4× multiples of the labeled rate (77 gmai/ha). Twenty one days after the herbicide was applied the plots were evaluated for percent injury caused to the rice based on control plots that had no herbicide application (FIG. 6). The data confirms the tolerance of line ML0831265-02283 and it may even carry more tolerance than line ML0831265-01493 as shown by less injury at the 2× and 4× rates of quizalofop.

In data set [7] the test system is mutant plants carrying RTA2 (R0146 X ML-083126502283F2). Description: MutMap F2 population herbicide response scoring. In kind it is in vivo, Oryza sativa. The note with it: 3 week old plants, scored 21 days after spray. The source says: A MutMap population was F2 plants from a cross between rice line R0146 X ML-083126502283F2. Pictures were taken 16 days post herbicide spray.
The herbicide Quizalofop was sprayed on the test fields. […] The plants were scored first at 16 days after the herbicide spray and then at 21 days after herbicide spray.
Mutant plants carrying the ‘unknown mutation RTA2’ were resistant. 3 week old plants were sprayed with Quizalofop and the herbicide response was scored 21 days after the spray. Susceptible symptoms were already observed 7 days after the Quizalofop spray, but scoring was done at 21 days. […] Few plants scored 3 (little damage on leaves or new leaf growth observed, and most likely plants will survive) or score 5 (half of the canopy is damaged and hard to predict whether the plants will survive or not), or score 7 (more damage on leaves, plants will not survive).

Take `CC(Oc1ccc(Oc2ccc(C(F)(F)F)cn2)cc1)C(=O)O` (stereo not shown) [Fluazifop]: the “tolerance compared with donor line ML0831265-01493” value in data set [1] is “equivalent tolerance”. Also, in data set [2] (RTA1+RTA2, 4×, FIG. 21 trial), the injury result was “minimal injury”. For the same molecule, the “usability on the crop” value in data set [3] (rates of 2× or less, any trait combination containing RTA1) was “viable”. Besides, the “rates of injury compared with the other FOP herbicides” value in data set [4] (RTA1) is given as “much lower than either of the other FOP herbicides”. Further, the “control of common grass weeds, such as barnyard grass, in rice” value in data set [5] is recorded as “good control”.
For `CC(C)=NOCCOC(=O)[C@@H](C)Oc1ccc(Oc2cnc3cc(Cl)ccc3n2)cc1` [Propaquizafop], the “rates of injury compared with other FOP herbicides” value in data set [3] (across all trait combinations) is recorded as “highest rates of injury”. Moreover, the injury rates in data set [4] was around 40%.
Turning to `CC(Oc1ccc(Oc2cnc3cc(Cl)ccc3n2)cc1)C(=O)O` (stereo not shown) [Quizalofop], the “percent injury compared with line ML0831265-01493” value in data set [6] is listed as “less injury”. Moreover, in data set [7], the herbicide response entry is “resistant”. Moreover, in data set [1], the “tolerance compared with donor line ML0831265-01493” value is recorded as “equivalent tolerance”. The injury result was “no injury” in data set [2] (RTA1+RTA2, 4× label rate, 4 weeks post preflood application) and “minimal” in data set [2] (RTA1+RTA2, high application rates, FIG. 21 trial). The “maximum dose tolerated with no phytotoxicity” value in data set [2] (double homozygous RTA1-RTA2, 2-leaf stage) was 80 oz/acre. Besides, the yield entry in data set [4] (RTA1, 1× and 2× application rates) is “good yield retention”. The molecule also registered an injury rates in data set [4] of around 40%. Further, the “control of common grass weeds, such as barnyard grass, in rice” value in data set [5] is given as “good control”.
